Patent US20130254944A1, “Herbicide Tolerant Soybeans and Methods of Use” (PIONEER HI BRED INTERNATIONAL INC, priority 2012, published 2013)

Key:
Format in all cases: in vivo
[1] = test system: soybean having the Als1 mutation; test: Greenhouse postemergence test of ALS-inhibiting herbicides, soybean with Als1 mutation; conditions: for Avg response (% phytotoxicity), Trait Als1: Table 2; for EC10, Als1: rate of herbicide estimated to cause 10% phytotoxic response, loglogistic fit
Method: (§1) Soybean lines having wild type als1 & 2 genes, the Als1 mutation, the Als2 mutation, or both the Als1 and Als2 mutations were evaluated for their response to various herbicides. Two seeds from each line were planted into 4-inch pots containing Redi-Earth potting mix (Sun Gro Horticulture Canada Ltd. 52130 RR65, Seba Beach, Alberta TOE 2B0), with two replications planted for each treatment. Pots were placed in flats at 15 pots/flat, and the resulting plants were grown in a greenhouse environment supplemented with lighting (16 hr photoperiod) for the duration of the test. Selected herbicides representing the mode of action that inhibits the acetolactate synthase enzyme, also known as the acetohydroxyacid synthase enzyme, were applied postemergence to soybean when soybean plants were at the V2 growth stage, which is the stage at which the first two trifoliolate leaves were expanded.
(§2) Eleven active ingredients representing the five chemical families with herbicidal activity on the acetolactate synthase enzyme were tested. These herbicides can cause a phytotoxic response in wild type soybean plants. The five chemical families tested were sulfonylaminocarbonyltriazolinone (also known as triazolinone), imidazolinone, sulfonylurea, pyrimidinylthiobenzoate, and triazolopyrimidine. Application rates ranged from 0.5 times to eight times the currently labeled application rate for each active ingredient with spray application volume at 30 gallons/acre. The application rates tested were 0.5×, 1×, 2×, 4× and 8× the label rate for each herbicide. Herbicidal active ingredients were applied as formulated materials dispersed in water containing 0.25% nonionic surfactant (Trend® 90).
(§3) The test was evaluated by visually scoring plant phenotype 14 days after the herbicides were applied. Controls consisted of soybean plants of the same variety that received no herbicide treatments for each of all the varieties tested. Soybean response was recorded on a zero to 100 visual scale in which zero is no phytotoxic response and 100 is plant death fourteen days after the herbicides were applied. Soybean response (percent phytotoxicity) to postemergence applications of herbicides inhibiting the acetolactate synthase enzyme test results are shown in Table 1.
(§4) Results in Table 1 were evaluated using the isobole method for analyzing interactions. […] Here the biologically active agents that are being assessed for interaction (synergy) are gene mutations in soybean. The effectiveness of the genes in providing improved tolerance to ALS-inhibiting herbicides was assessed by applying increasing doses of herbicides to each soybean line with its mutation(s).
(§5) An isobole reduces a dose response surface in three dimensional space to a two dimensional plot by fixing a defined response level (e.g., 50% response). The isobole plot is a graph in the Cartesian plane with a straight line connecting the isoeffective rates of the individual components of the combination. This straight line represents expected responses for zero interactive combinations. The isoeffective rate used to create the isobole is often the EC50, the rate estimated to elicit 50% response, but other ECx values can be used. Since the isobole method is based on the potency of the components of the combination, an experimental design testing a range of rates expected to elicit the full range of responses (e.g., 0 to maximum response) is best. (Ferry et al. (2005) 2005 Conference on Applied Statistics in Agriculture Proceedings pp 33-50, Manhattan, Kans., Kansas State Univ.; Green and Streibig (1993) Herbicide Mixtures, pp 117-134 in Herbicide Bioassays, Streibig and Hudsk Eds, CRC, Boca Raton, Fla.).
(§6) Loglogistic dose response curves were fit to percent phytotoxicity response data using log 10 of dose (McCullagh and Nelder (1989) Generalized Linear Models, Chapman & Hall, London). Curves were fit using the logit link with normal errors. […]

[2] = test system: soybean having both the Als1 and Als2 mutations; test: Greenhouse postemergence test of ALS-inhibiting herbicides and isobole analysis, soybean with Als1 and Als2 mutations; conditions: for Avg response (% phytotoxicity), Trait Als1 + Als2: Table 2; for EC10, Als1 + Als2: rate of herbicide estimated to cause 10% phytotoxic response, loglogistic fit
Method: as §1, §2, §3, §4, §5, §6

[3] = test system: wild type soybean; test: Greenhouse postemergence test of ALS-inhibiting herbicides, wild type soybean
Method: as §1, §2, §3

[4] = test system: soybean having the Als2 mutation; test: Greenhouse postemergence test of ALS-inhibiting herbicides, soybean with Als2 mutation; conditions: for Avg response (% phytotoxicity), Trait Als2: Table 2; for EC10, Als2: rate of herbicide estimated to cause 10% phytotoxic response, loglogistic fit
Method: as §1, §2, §3, §4, §5, §6

[5] = 35 g ai/ha postemergence at V2, scored 14 days after application
[6] = 70 g ai/ha postemergence at V2, scored 14 days after application
[7] = 140 g ai/ha postemergence at V2, scored 14 days after application
[8] = 280 g ai/ha postemergence at V2, scored 14 days after application
[9] = 560 g ai/ha postemergence at V2, scored 14 days after application
[10] = 17.5 g ai/ha postemergence at V2, scored 14 days after application

CCc1cnc(C2=NC(C)(C(C)C)C(=O)N2)c(C(=O)O)c1 (stereo not shown) [Imazethapyr]
5%: Soybean response (percent phytotoxicity), Als1 + Als2 [2, 8] | Avg response (% phytotoxicity), Trait Als1 + Als2 ([2]; 280 g ai/ha) | Soybean response (percent phytotoxicity), Als2 [4, 9]
20%: Soybean response (percent phytotoxicity), Als1 [1, 9] | Avg response (% phytotoxicity), Trait Als1 ([1]; 560 g ai/ha) | Soybean response (percent phytotoxicity), Wild type [3, 9]
10%: Soybean response (percent phytotoxicity), Als1 [1, 8] | Avg response (% phytotoxicity), Trait Als1 ([1]; 280 g ai/ha) | Soybean response (percent phytotoxicity), Als1 + Als2 [2, 9] | Avg response (% phytotoxicity), Trait Als1 + Als2 ([2]; 560 g ai/ha) | Avg response (% phytotoxicity), Trait Als2 ([4]; 560 g ai/ha)
333.22 g ai/ha: EC10, Als1 [1]
15%: Soybean response (percent phytotoxicity), Wild type [3, 8]
549.93 g ai/ha: EC10, Als1 + Als2 [2]
560.00 g ai/ha: EC10, Als2 [4]
0%: Soybean response (percent phytotoxicity), Als1 [1, 5] | Avg response (% phytotoxicity), Trait Als1 ([1]; 35 g ai/ha) | Soybean response (percent phytotoxicity), Als1 [1, 6] | Avg response (% phytotoxicity), Trait Als1 ([1]; 70 g ai/ha) | Soybean response (percent phytotoxicity), Als1 [1, 7] | Avg response (% phytotoxicity), Trait Als1 ([1]; 140 g ai/ha) | Soybean response (percent phytotoxicity), Als1 + Als2 [2, 5] | Avg response (% phytotoxicity), Trait Als1 + Als2 ([2]; 35 g ai/ha) | Soybean response (percent phytotoxicity), Als1 + Als2 [2, 6] | Avg response (% phytotoxicity), Trait Als1 + Als2 ([2]; 70 g ai/ha) | Soybean response (percent phytotoxicity), Als1 + Als2 [2, 7] | Avg response (% phytotoxicity), Trait Als1 + Als2 ([2]; 140 g ai/ha) | Soybean response (percent phytotoxicity), Wild type [3, 5] | Soybean response (percent phytotoxicity), Wild type [3, 6] | Soybean response (percent phytotoxicity), Wild type [3, 7] | Soybean response (percent phytotoxicity), Als2 [4, 5] | Avg response (% phytotoxicity), Trait Als2 ([4]; 35 g ai/ha) | Soybean response (percent phytotoxicity), Als2 [4, 6] | Avg response (% phytotoxicity), Trait Als2 ([4]; 70 g ai/ha) | Soybean response (percent phytotoxicity), Als2 [4, 7] | Avg response (% phytotoxicity), Trait Als2 ([4]; 140 g ai/ha) | Soybean response (percent phytotoxicity), Als2 [4, 8] | Avg response (% phytotoxicity), Trait Als2 ([4]; 280 g ai/ha)

COc1cc(OC)nc(NC(=O)NS(=O)(=O)c2ncccc2C(=O)N(C)C)n1 [Nicosulfuron]
65%: Soybean response (percent phytotoxicity), Wild type [3, 8]
20%: Soybean response (percent phytotoxicity), Wild type [3, 6] | Soybean response (percent phytotoxicity), Als2 [4, 7] | Avg response (% phytotoxicity), Trait Als2 ([4]; 140 g ai/ha)
0%: Soybean response (percent phytotoxicity), Als1 [1, 10] | Avg response (% phytotoxicity), Trait Als1 ([1]; 17.5 g ai/ha) | Soybean response (percent phytotoxicity), Als1 [1, 5] | Avg response (% phytotoxicity), Trait Als1 ([1]; 35 g ai/ha) | Soybean response (percent phytotoxicity), Als1 [1, 6] | Avg response (% phytotoxicity), Trait Als1 ([1]; 70 g ai/ha) | Soybean response (percent phytotoxicity), Als1 + Als2 [2, 10] | Avg response (% phytotoxicity), Trait Als1 + Als2 ([2]; 17.5 g ai/ha) | Soybean response (percent phytotoxicity), Als1 + Als2 [2, 5] | Avg response (% phytotoxicity), Trait Als1 + Als2 ([2]; 35 g ai/ha) | Soybean response (percent phytotoxicity), Als1 + Als2 [2, 6] | Avg response (% phytotoxicity), Trait Als1 + Als2 ([2]; 70 g ai/ha) | Soybean response (percent phytotoxicity), Als1 + Als2 [2, 7] | Avg response (% phytotoxicity), Trait Als1 + Als2 ([2]; 140 g ai/ha) | Soybean response (percent phytotoxicity), Wild type [3, 10] | Soybean response (percent phytotoxicity), Als2 [4, 10] | Avg response (% phytotoxicity), Trait Als2 ([4]; 17.5 g ai/ha) | Soybean response (percent phytotoxicity), Als2 [4, 5] | Avg response (% phytotoxicity), Trait Als2 ([4]; 35 g ai/ha) | Soybean response (percent phytotoxicity), Als2 [4, 6] | Avg response (% phytotoxicity), Trait Als2 ([4]; 70 g ai/ha)
25%: Soybean response (percent phytotoxicity), Als1 [1, 8] | Avg response (% phytotoxicity), Trait Als1 ([1]; 280 g ai/ha)
45%: Soybean response (percent phytotoxicity), Wild type [3, 7]
187.47 g ai/ha: EC10, Als1 [1]
5%: Soybean response (percent phytotoxicity), Als1 [1, 7] | Avg response (% phytotoxicity), Trait Als1 ([1]; 140 g ai/ha) | Soybean response (percent phytotoxicity), Als1 + Als2 [2, 8] | Avg response (% phytotoxicity), Trait Als1 + Als2 ([2]; 280 g ai/ha)
>280 g ai/ha: EC10, Als1 + Als2 [2]
10%: Soybean response (percent phytotoxicity), Wild type [3, 5]
105.60 g ai/ha: EC10, Als2 [4]
35%: Soybean response (percent phytotoxicity), Als2 [4, 8] | Avg response (% phytotoxicity), Trait Als2 ([4]; 280 g ai/ha)
